Results published in paper PMC4854315, “Discovery of a novel allosteric inhibitor-binding site in ERK5: comparison with the canonical kinase hinge ATP-binding site” (Acta Crystallographica. Section D, Structural Biology, 2016).

Key:
Assay in all cases: Z'-LYTE kinase panel
Type in all cases: biochemical
MAPK9 (JNK2) = molecular target: T1, MAPK9 (JNK2) (Homo sapiens, UniProt P45984); conditions: 10 µM compound; ATP 100
T1 construct: purchased ThermoFisher (SelectScreen, Z'-LYTE)
In short: (§1)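 Z′-LYTE, standard conditions; 10 µM test compound; values = % inhibition; broad panel of 225 kinases.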

MST1R (RON) = molecular target: T2, MST1R (RON) (Homo sapiens, UniProt Q04912)
T2 construct: purchased ThermoFisher (SelectScreen, Z'-LYTE)
T2 sequence (Q04912 25-1400): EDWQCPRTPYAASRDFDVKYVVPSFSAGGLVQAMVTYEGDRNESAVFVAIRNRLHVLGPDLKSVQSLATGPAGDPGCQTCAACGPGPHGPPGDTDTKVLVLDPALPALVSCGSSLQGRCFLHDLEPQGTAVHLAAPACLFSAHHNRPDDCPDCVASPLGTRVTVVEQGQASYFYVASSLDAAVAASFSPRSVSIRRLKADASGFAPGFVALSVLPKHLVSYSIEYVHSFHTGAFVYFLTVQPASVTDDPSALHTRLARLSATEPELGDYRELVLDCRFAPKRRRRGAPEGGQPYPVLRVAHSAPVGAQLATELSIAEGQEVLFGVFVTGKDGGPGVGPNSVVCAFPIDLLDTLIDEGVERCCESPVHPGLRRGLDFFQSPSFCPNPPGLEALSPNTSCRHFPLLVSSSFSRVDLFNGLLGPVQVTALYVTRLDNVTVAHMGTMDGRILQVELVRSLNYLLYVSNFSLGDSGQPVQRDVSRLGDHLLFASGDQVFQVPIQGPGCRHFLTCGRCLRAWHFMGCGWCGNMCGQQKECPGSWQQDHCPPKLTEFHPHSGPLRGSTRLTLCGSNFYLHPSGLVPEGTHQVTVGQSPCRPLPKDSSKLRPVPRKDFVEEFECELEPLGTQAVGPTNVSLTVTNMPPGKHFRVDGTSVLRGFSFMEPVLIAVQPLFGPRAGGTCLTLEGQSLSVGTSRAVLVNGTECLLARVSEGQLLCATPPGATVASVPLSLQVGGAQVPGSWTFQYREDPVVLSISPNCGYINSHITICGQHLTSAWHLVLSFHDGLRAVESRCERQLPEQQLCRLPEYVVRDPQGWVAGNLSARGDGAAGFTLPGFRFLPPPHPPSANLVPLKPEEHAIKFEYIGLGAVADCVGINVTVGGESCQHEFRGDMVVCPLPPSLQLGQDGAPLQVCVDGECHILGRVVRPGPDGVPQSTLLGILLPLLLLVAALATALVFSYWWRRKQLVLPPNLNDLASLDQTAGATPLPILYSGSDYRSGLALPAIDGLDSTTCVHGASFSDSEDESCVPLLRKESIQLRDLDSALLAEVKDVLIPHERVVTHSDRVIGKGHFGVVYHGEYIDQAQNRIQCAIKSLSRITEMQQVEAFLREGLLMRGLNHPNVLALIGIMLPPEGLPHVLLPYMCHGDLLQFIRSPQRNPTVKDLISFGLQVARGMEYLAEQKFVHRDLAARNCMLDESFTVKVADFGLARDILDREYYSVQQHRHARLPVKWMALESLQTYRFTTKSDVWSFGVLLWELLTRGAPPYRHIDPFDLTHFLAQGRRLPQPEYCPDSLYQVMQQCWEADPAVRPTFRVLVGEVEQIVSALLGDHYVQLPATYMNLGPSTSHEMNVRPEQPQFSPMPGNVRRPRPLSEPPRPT
In short: as §1

RET = molecular target: T3, RET (Homo sapiens, UniProt P07949)
T3 construct: purchased ThermoFisher (SelectScreen, Z'-LYTE)
T3 sequence (P07949 29-1114): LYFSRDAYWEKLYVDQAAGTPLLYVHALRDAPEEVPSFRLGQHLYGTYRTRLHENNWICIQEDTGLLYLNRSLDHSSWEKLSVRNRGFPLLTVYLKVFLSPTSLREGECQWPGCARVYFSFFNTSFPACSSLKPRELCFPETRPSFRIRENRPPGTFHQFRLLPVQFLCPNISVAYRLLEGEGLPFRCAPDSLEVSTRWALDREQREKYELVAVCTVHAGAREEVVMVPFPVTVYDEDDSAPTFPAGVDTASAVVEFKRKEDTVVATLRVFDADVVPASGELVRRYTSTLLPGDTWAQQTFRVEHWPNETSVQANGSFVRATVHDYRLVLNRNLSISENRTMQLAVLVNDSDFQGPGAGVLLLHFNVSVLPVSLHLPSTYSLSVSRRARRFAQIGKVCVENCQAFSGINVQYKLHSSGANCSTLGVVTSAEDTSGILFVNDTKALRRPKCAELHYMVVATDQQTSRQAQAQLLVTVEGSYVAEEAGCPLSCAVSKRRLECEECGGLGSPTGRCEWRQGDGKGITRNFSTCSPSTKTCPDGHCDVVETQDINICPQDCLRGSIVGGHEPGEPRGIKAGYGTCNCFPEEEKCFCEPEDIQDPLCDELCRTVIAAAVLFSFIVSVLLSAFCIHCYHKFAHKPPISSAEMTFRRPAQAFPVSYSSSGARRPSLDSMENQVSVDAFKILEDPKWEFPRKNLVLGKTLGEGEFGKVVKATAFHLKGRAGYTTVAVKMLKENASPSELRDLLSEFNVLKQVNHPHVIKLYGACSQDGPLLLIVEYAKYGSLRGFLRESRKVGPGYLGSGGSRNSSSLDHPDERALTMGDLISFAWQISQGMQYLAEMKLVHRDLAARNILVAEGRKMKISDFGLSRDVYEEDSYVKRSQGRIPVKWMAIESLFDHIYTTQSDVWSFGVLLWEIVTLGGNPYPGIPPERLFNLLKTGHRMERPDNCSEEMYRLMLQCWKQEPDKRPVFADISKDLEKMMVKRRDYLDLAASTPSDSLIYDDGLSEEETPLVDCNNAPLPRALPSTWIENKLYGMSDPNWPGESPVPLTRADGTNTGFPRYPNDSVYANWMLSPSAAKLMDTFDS
In short: as §1

SRMS (Srm) = molecular target: T4, SRMS (Srm) (Homo sapiens, UniProt Q9H3Y6)
T4 construct: purchased ThermoFisher (SelectScreen, Z'-LYTE)
T4 sequence (Q9H3Y6 whole entry): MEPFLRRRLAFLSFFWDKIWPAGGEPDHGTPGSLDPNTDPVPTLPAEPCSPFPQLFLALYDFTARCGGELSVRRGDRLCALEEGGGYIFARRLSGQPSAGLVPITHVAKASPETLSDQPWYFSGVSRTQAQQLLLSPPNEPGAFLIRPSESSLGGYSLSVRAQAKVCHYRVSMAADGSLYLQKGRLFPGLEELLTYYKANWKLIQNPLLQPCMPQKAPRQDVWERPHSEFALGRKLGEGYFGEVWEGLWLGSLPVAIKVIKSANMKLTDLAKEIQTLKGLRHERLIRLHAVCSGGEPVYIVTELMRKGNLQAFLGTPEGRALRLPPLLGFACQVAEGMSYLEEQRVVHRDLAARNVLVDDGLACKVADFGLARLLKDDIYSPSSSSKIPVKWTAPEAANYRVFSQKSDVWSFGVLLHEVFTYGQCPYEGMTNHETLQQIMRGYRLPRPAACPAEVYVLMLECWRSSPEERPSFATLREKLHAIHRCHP
In short: as §1

EPHB3 = molecular target: T5, EPHB3 (Homo sapiens, UniProt P54753)
T5 construct: purchased ThermoFisher (SelectScreen, Z'-LYTE)
T5 sequence (P54753 34-998): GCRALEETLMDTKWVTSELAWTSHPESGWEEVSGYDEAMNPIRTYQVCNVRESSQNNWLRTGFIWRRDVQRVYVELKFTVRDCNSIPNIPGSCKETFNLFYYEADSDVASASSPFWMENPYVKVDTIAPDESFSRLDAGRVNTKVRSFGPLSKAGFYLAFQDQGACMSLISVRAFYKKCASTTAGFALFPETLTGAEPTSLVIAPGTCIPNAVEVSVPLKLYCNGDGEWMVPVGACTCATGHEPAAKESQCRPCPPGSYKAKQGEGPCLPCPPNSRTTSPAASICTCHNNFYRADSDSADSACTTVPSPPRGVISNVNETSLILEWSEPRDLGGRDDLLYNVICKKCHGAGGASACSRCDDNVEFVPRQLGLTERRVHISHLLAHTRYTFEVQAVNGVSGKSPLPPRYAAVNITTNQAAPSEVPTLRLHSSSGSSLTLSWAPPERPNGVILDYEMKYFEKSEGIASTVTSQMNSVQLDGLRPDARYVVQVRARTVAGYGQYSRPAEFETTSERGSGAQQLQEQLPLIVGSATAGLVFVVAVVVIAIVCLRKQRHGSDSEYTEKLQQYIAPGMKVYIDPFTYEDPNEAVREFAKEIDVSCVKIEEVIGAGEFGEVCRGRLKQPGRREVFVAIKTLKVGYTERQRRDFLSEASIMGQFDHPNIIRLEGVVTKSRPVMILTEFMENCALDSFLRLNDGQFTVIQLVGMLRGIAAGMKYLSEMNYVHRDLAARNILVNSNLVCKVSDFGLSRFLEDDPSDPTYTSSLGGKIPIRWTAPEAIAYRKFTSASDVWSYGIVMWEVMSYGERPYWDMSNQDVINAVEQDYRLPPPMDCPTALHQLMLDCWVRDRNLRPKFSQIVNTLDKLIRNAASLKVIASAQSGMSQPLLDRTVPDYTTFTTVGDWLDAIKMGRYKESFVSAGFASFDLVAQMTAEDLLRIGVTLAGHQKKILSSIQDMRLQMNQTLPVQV
In short: as §1

FGR = molecular target: T6, FGR (Homo sapiens, UniProt P09769)
T6 construct: purchased ThermoFisher (SelectScreen, Z'-LYTE)
In short: as §1

PKN1 (PRK1) = molecular target: T7, PKN1 (PRK1) (Homo sapiens, UniProt Q16512)
T7 construct: purchased ThermoFisher (SelectScreen, Z'-LYTE)
T7 sequence (Q16512 whole entry): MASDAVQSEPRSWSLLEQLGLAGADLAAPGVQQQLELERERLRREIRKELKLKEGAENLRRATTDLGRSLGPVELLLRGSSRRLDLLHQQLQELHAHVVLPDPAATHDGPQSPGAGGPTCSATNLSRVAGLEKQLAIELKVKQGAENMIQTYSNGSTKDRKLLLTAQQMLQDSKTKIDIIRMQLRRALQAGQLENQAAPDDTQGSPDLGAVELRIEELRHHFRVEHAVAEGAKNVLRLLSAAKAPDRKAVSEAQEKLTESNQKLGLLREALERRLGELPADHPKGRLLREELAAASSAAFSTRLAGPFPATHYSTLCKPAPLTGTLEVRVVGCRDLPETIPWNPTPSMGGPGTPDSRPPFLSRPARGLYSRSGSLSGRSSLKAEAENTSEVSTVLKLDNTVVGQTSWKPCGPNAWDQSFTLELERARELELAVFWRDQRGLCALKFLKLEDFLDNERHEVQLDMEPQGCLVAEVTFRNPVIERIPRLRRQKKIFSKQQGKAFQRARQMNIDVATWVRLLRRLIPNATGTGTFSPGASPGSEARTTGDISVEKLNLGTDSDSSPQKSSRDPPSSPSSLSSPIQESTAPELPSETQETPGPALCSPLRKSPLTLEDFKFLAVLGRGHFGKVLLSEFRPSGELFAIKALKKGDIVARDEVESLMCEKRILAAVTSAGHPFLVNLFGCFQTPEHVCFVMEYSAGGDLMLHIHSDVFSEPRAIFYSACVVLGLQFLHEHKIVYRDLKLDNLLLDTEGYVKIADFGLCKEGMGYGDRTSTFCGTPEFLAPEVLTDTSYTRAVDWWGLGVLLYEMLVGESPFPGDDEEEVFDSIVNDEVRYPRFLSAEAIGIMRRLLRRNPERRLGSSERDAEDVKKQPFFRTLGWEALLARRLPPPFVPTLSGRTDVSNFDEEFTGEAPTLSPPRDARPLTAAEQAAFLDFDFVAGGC
In short: as §1

MARK4 = molecular target: T8, MARK4 (Homo sapiens, UniProt Q96L34)
T8 construct: purchased ThermoFisher (SelectScreen, Z'-LYTE)
T8 sequence (Q96L34 1-752): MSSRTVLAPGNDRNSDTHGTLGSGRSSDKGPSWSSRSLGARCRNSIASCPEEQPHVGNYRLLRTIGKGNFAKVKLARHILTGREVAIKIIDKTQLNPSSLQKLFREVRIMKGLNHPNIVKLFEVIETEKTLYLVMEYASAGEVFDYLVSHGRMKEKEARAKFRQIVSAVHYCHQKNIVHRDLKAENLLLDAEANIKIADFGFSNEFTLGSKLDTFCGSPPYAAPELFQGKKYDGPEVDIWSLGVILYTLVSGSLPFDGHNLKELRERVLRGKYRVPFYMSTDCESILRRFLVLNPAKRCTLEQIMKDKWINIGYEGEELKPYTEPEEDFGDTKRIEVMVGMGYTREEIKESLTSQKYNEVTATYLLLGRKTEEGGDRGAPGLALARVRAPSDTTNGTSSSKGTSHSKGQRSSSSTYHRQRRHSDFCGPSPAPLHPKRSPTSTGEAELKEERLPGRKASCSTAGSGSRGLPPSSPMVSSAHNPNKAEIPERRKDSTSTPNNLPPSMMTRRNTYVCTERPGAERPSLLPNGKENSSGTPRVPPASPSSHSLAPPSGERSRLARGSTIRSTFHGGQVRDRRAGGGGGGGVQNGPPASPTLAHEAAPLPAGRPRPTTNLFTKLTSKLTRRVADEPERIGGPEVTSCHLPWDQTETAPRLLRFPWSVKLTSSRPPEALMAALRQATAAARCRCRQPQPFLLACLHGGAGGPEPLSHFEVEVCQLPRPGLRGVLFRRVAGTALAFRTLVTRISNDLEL
In short: as §1

MAP4K2 (GCK) = molecular target: T9, MAP4K2 (GCK) (Homo sapiens, UniProt Q12851)
T9 construct: purchased ThermoFisher (SelectScreen, Z'-LYTE)
T9 sequence (Q12851 1-820): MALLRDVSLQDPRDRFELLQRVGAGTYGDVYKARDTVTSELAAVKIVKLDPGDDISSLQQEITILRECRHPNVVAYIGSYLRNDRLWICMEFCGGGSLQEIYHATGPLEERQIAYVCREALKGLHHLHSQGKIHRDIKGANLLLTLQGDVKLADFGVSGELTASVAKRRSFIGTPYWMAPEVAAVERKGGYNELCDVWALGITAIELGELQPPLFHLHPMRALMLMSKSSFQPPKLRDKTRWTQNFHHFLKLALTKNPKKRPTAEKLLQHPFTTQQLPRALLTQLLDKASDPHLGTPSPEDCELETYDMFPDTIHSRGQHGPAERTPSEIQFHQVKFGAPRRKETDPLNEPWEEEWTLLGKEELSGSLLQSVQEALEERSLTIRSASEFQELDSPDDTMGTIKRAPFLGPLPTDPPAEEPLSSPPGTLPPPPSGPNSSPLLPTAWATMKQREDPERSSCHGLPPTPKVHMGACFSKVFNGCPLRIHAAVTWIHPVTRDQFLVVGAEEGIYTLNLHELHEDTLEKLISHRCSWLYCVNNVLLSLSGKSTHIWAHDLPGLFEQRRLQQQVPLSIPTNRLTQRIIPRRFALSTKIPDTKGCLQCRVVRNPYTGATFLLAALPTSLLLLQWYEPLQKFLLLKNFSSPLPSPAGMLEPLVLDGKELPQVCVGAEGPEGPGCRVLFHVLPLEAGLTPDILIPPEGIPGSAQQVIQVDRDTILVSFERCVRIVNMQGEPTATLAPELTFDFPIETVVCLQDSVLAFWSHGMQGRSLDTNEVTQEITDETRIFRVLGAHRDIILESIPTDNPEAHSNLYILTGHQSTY
In short: as §1

Row | Molecule | inhibition at 10 µM (MAPK9 (JNK2)) [%] | inhibition at 10 µM (MST1R (RON)) [%] | inhibition at 10 µM (RET) [%] | inhibition at 10 µM (SRMS (Srm)) [%] | inhibition at 10 µM (EPHB3) [%] | inhibition at 10 µM (FGR) [%] | inhibition at 10 µM (PKN1 (PRK1)) [%] | inhibition at 10 µM (MARK4) [%] | inhibition at 10 µM (MAP4K2 (GCK)) [%] | MAPK9 (JNK2) % Inhibition (MAPK9 (JNK2)) [%] | MST1R (RON) % Inhibition (MST1R (RON); 10 µM compound, ATP Km app) [%] | RET % Inhibition (RET; 10 µM compound, ATP Km app) [%] | SRMS (Srm) % Inhibition (SRMS (Srm); 10 µM compound, ATP Km app) [%] | EPHB3 % Inhibition (EPHB3; 10 µM compound, ATP Km app) [%] | FGR % Inhibition (FGR; 10 µM compound, ATP Km app) [%] | PKN1 (PRK1) % Inhibition (PKN1 (PRK1); 10 µM compound, ATP Km app) [%] | MARK4 % Inhibition (MARK4; 10 µM compound, ATP Km app) [%] | MAP4K2 (GCK) % Inhibition (MAP4K2 (GCK); 10 µM compound, ATP Km app) [%]
1 | Cc1cc(Nc2nc(N)nn2C(=O)NC(C)C)ccc1Cl [Compound 5] | 4.72 | 1.17 | 44 | 2.26 | 0.2 | 54 | -3.54 | 2.34 | 50 |  |  |  |  |  |  |  |  | 
2 | Cc1ncc(-c2nc(Nc3ccc(C(=O)NCCN4CCCCC4)cc3)ncc2F)n1C(C)C [Compound 3] | 103 | 67 | 95 | 20 | 51 | 90 | 62 | 62 | 77 |  |  |  |  |  |  |  |  | 
3 | XMD8-92 [Compound 2, reference compound] |  |  |  |  |  |  |  |  |  | 5.42 | 37 | 40 | 21 | 22 | 83 | 1.26 | 37 | 46
